We go through seven compounds from ChEMBL document CHEMBL1781957, “Selective and potent agonists for estrogen receptor beta derived from molecular refinements of salicylaldoximes” (Eur J Med Chem, 2011).

The target in assay [1] is T1, Estrogen receptor (Homo sapiens) (UniProt P03372).
T1 sequence (whole entry): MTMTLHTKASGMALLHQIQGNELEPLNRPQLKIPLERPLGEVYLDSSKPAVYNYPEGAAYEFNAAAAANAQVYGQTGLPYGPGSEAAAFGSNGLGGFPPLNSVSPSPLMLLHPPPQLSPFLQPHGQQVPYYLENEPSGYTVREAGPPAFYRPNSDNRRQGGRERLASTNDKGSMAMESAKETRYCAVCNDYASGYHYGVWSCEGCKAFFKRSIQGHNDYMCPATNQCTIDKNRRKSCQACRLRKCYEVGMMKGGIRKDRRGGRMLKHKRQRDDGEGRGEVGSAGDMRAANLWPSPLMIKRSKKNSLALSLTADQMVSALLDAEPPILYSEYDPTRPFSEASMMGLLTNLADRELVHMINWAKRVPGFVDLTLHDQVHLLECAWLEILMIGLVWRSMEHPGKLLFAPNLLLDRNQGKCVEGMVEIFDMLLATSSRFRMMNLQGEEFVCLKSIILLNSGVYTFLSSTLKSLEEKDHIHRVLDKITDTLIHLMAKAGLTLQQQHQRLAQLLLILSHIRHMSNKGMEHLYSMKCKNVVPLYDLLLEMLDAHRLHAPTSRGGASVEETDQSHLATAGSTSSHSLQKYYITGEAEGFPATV
Description: Displacement of [3H]-estradiol from human full-length ERalpha receptor by competitive radiometric binding assay relative to estradiol.

In assay [2] the target is T2, Estrogen receptor beta (Homo sapiens, UniProt Q92731). Description: Displacement of [3H]-estradiol from human full-length ERbeta receptor by competitive radiometric binding assay relative to estradiol.
In assay [3] the target is T2, Estrogen receptor beta.
Assay [4] addresses T1, Estrogen receptor (Homo sapiens). Description: Agonist activity at human full-length ERalpha receptor expressed in human HEC1 cells co-expressing (ERE)2-pS2-luc gene assessed as transcriptional activation after 24 hrs by luciferase reporter gene assay relative to estradiol. It counts as functional, cell-based. As to conditions: HEC-1.
The target of assay [5] is T2, Estrogen receptor beta. Description: Agonist activity at human full-length ERbeta receptor expressed in human HEC1 cells co-expressing (ERE)2-pS2-luc gene assessed as transcriptional activation after 24 hrs by luciferase reporter gene assay relative to estradiol. It is filed as functional, cell-based. The following applies: HEC-1. (A reporter such as luciferase makes a cellular process visible.)

The next assay deals with T3, Estrogen receptor (Homo sapiens, UniProt P03372).
T3 sequence (P03372 whole entry): T1 sequence (whole entry)

Assay [6] has as its target T2, Estrogen receptor beta. This is another data set of the same source.

Broadly, the EC50 is the concentration that produces a half-maximal response. A high value points to a less potent agent. As a reminder, the Emax is the greatest response seen or fitted, relative to the assay's reference. For orientation: Ki means a measure of affinity in units of concentration, obtained from inhibition or displacement.

T2 sequence (Q92731 whole entry): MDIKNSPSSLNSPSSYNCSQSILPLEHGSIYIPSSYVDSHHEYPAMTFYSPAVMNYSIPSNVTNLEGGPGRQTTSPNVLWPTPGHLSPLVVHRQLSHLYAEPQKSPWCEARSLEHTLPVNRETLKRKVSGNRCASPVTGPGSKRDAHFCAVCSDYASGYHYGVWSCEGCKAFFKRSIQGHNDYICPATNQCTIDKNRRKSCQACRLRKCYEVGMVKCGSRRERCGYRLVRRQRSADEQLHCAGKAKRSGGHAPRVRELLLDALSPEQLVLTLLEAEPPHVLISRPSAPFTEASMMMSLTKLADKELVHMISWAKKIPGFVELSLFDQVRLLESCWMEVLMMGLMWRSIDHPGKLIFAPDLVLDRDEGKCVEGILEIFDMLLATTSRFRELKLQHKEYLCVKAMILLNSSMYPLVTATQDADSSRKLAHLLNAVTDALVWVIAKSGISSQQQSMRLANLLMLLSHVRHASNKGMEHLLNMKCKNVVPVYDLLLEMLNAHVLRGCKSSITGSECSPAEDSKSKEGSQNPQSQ

On to `Cc1cc(-c2ccc(O)cc2)c(Cl)c(/C=N/O)c1O`, for which the RBA in assay [1] came to 0.074%; at Estrogen receptor beta [2], 0.64%.
With `O/N=C/c1c(O)ccc(-c2ccc(O)c(F)c2)c1Cl`, the EC50 on Estrogen receptor beta [3] is 1.3 nM; at Estrogen receptor it was 8.4 nM. The Emax (in assay [4]; on Estrogen receptor beta [5]) was 100% throughout. For the same compound, the RBA in assay [1] amounted to 1.88%; on Estrogen receptor beta [2], 87.1%. The compound further showed a Ki on Estrogen receptor beta [6] of 0.57 nM.
Take `Cc1c(-c2ccc(O)cc2)cc(Cl)c(O)c1/C=N/O`: the RBA in assay [1] was 1.47%; at Estrogen receptor beta [2], 15.8%.
In the case of `O/N=C/c1c(O)ccc(-c2ccc(O)cc2)c1Cl`, the EC50 at Estrogen receptor beta [3] stood at 0.23 nM; at Estrogen receptor, 0.58 nM. In addition, the maximal response (Emax) (in assay [4]; at Estrogen receptor beta [5]) was 100% throughout. For the same compound, the RBA in assay [1] was determined as 4.46%; on Estrogen receptor beta [2], 130%. The Ki at Estrogen receptor beta [6] came out at 0.38 nM.
For `O/N=C/c1c(O)ccc(-c2ccc(O)cc2)c1-c1ccc(O)cc1`, the values for the concentration giving a half-maximal response (EC50) on Estrogen receptor beta [3] and at Estrogen receptor were 0.5 nM and 0.3 nM, respectively. Moreover, the figures for the maximum response (Emax) (in assay [4]; at Estrogen receptor beta [5]) were 90% and 80%, respectively. The RBA was found to be 88.4% in assay [1] and 101% on Estrogen receptor beta [2].
As for `Cc1c(-c2ccc(O)c(F)c2)cc(Cl)c(O)c1/C=N/O`, the values for the RBA (in assay [1]; at Estrogen receptor beta [2]) were 0.39% and 7.9%, respectively.
On to `O/N=C/c1ccc(-c2ccc(O)cc2)c(-c2ccc(O)cc2)c1O`, for which the RBA in assay [1] turned out to be 0.92%; on Estrogen receptor beta [2], 0.35%.
